One compound from patent US6365631B1, “Method of treating sleep apnoea” (Knoll Pharmaceutical Company, priority 1999, dated 2002) can be followed below.

The subject of test [1] is patients suffering from clinically relevant obesity, many with serious sleep apnoea problems. The test can be described thus: clinical study, computer supported arousal/apnoea recognition in subset of 36 of 150 obese patients. The format is in vivo, human. The settings on record: Sibutramine 20 mg daily; week-12 vs week-1 (pre-treatment); subset of 36 patients. The protocol:
The beneficial effects of the compounds of the present invention at doses of 15 mg and 20 mg daily may also be confirmed in a double-blind, randomised, placebo-controlled clinical trial using questionnaires or by recording Holter ecgs with a Rozin/GeTeMed tape recorder device for 24 to 36 hours pre and post treatment period, using IEC-I type tapes. The ecg data may be computer-processed to study arousals.
In a clinical study with 150 patients suffering from clinically relevant obesity, many of them with serious sleep apnoea problems, a subset of 36 patients was arbitrarily selected for computer supported arousal/apnoea recognition. Two consecutive nights were recorded at week-1 (pre-treatment) and week-12 of treatment, and the number of arousals per hour of sleep time was evaluated. […] Compared to placebo this is significant at a 5%-level (p=0.0227).

Test [2] concerns patients suffering from clinically relevant obesity (BMI>30) and sleep apnoea. Put plainly: open explorative study with 5 volunteer patients with obesity and sleep apnoea.
Protocol: Study design: An open explorative study with 5 volunteer patients suffering from clinically relevant obesity (BMI>30) and sleep apnoea was performed. […] No other control treatment was applied.
Methods: Patients willing to lose weight who had obtained prescriptions for Reductil® (Knoll) from their doctor were asked to take part in this voluntary observational study. All patients were willing to change dietary habits during treatment, and to perform at least moderate physical training (twice a week at least half an hour). Patients were interviewed pre and post treatment, and their partners asked for their observations on snoring behaviour. The patients were asked for their own rating of severity of daytime sleepiness, and their partners for objective observations about frequency and heaviness of snoring as well as for their observations about apnoea signs.
[3] abbreviates: 5 patients, 10 or 15 mg daily, 6 to 14 weeks.

SMILES strings stand for the structures.

With `CC(C)CC(N(C)C)C1(c2ccc(Cl)cc2)CCC1` (stereo not drawn) [sibutramine, N,N-dimethyl-1-[1-(4-chlorophenyl)cyclobutyl]-3-methylbutylamine], the “reduction of number of arousals per hour of sleep time” value in test [1] is listed as “clinically significant effect”. For the same compound, in test [2] (setting [3]), the “mean weight loss under treatment” value turned out to be 14 kg and the “weight loss, span over patients” value is given as −7% to −22%. In test [2] (5 patients, 10 or 15 mg/kg daily, 6 to 14 weeks), the “mean weight loss under treatment (percent)” value is 14.6%. The “Mean BMI at end of treatment” value in test [2] (5 patients, sibutramine 10 or 15 mg daily, 6 to 14 weeks, 34 before treatment) was 29. In addition, in test [2] (mean 23,5 before treatment), the “arousal index Al, mean after treatment” value is on record as 10,0. Further, the “patients with clearly reduced daytime sleepiness” value in test [2] (of 5 patients, after treatment) is recorded as 4 out of 5. Besides, in test [2] (of 5 patients, under treatment), the “patients reporting improved ease of breathing with closed mouth” value is recorded as 3 out of 5. Also, in test [2] (pre vs post treatment), the “decrease of arousal index, span over patients” value is −25% to −67% and the “mean decrease of arousal index” value was −57%. For the same compound, the “daytime sleepiness scale after treatment, patient-reported” value in test [2] (scale 0-3, 2,0 before treatment) was 0,6. Also, the “snoring scale mean after treatment, observed by sleep companions” value in test [2] (scale 0-3, mean score 2,2 before treatment) was 1.
